Several values for one entry are separate records, joined by “and”; a condition that tells them apart may be missing. Equal entries are not always repeated. Inconclusive results and toxic doses are left out. Rule for the calls: active = survival T/C of 150% or more; inactive = T/C below 125% in these data.
System: CD2F1 mice, L1210 leukemia ip, survival T/C
Assay: NCI In Vivo Anticancer Drug Screen. Data for tumor model L1210 Leukemia (intraperitoneal) in CD2F1 (CDF1) mice
Conditions: higher = longer survival
How it was run: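 Vehicle-treated tumor-bearing mice served as controls (C) for compound-treated mice (T). Reported figure is T divided by C.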

[1] = endpoint: mean survival time, dose: 100.0 mg/kg/injection, schedule: Q01DX009 (ip), vehicle: saline with Tween-80
[2] = endpoint: mean survival time, dose: 200.0 mg/kg/injection, schedule: Q01DX009 (ip), vehicle: saline with Tween-80
[3] = endpoint: mean survival time, dose: 400.0 mg/kg/injection, schedule: Q01DX009 (ip), vehicle: saline with Tween-80
[4] = endpoint: mean survival time, dose: 100.0 mg/kg/injection, schedule: Q04DX003 (ip), vehicle: saline with Tween-80
[5] = endpoint: mean survival time, dose: 12.5 mg/kg/injection, schedule: Q01DX009 (ip), vehicle: saline with Tween-80
[6] = endpoint: mean survival time, dose: 25.0 mg/kg/injection, schedule: Q01DX009 (ip), vehicle: saline with Tween-80
[7] = endpoint: mean survival time, dose: 50.0 mg/kg/injection, schedule: Q01DX009 (ip), vehicle: saline with Tween-80
[8] = endpoint: mean survival time, dose: 200.0 mg/kg/injection, schedule: Q04DX003 (ip), vehicle: saline with Tween-80
[9] = endpoint: mean survival time, dose: 400.0 mg/kg/injection, schedule: Q04DX003 (ip), vehicle: saline with Tween-80

Measured: T/C

CC1CC[N-]CC1.CC1CC[N-]CC1.CC1CC[N-]CC1.CC1CC[N-]CC1.CS(C)=O.CS(C)=O.[Cl-].[Cl-].[Cl-].[Cl-].[Pt+4].[Rh+3]
inactive: endpoint: mean survival time, dose: 0.2 mg/kg/injection, schedule: Q01DX009 (ip), vehicle: water 97 % of control | endpoint: mean survival time, dose: 0.4 mg/kg/injection, schedule: Q01DX009 (ip), vehicle: water 92 % of control | endpoint: mean survival time, dose: 0.78 mg/kg/injection, schedule: Q04DX003 (ip), vehicle: Klucel (hydroxypropylcellulose) (HPC) 102 % of control | endpoint: mean survival time, dose: 0.8 mg/kg/injection, schedule: Q01DX009 (ip), vehicle: water 93 % of control | endpoint: mean survival time, dose: 1.5 mg/kg/injection, schedule: Q01DX009 (ip), vehicle: water 97 % of control | endpoint: mean survival time, dose: 1.56 mg/kg/injection, schedule: Q04DX003 (ip), vehicle: Klucel (hydroxypropylcellulose) (HPC) 98 % of control | endpoint: mean survival time, dose: 3.0 mg/kg/injection, schedule: Q01DX009 (ip), vehicle: water 92 % of control | endpoint: mean survival time, dose: 3.13 mg/kg/injection, schedule: Q04DX003 (ip), vehicle: Klucel (hydroxypropylcellulose) (HPC) 102 % of control | endpoint: mean survival time, dose: 6.25 mg/kg/injection, schedule: Q04DX003 (ip), vehicle: water 103 % of control

O=C(O)C(Cc1ccc(O)cc1)c1ccccc1 (stereo not given)
inactive: [1] 103 % of control | [2] 101 % of control | [3] 95 % of control

C/C(=C\Cl)CO
inactive: endpoint: mean survival time, dose: 50.0 mg/kg/injection, schedule: Q01DX009 (ip), vehicle: acetone 100 % of control | endpoint: mean survival time, dose: 100.0 mg/kg/injection, schedule: Q01DX009 (ip), vehicle: acetone 106 % of control

O=NN(CCCl)C(=O)Nc1c[nH]c2ccccc12
inactive: endpoint: mean survival time, dose: 177.0 mg/kg/injection, schedule: Q01DX001 (ip), vehicle: saline with Tween-80 96 % of control | endpoint: mean survival time, dose: 177.0 mg/kg/injection, schedule: Q01DX009 (ip), vehicle: saline with Tween-80 98 % of control | endpoint: mean survival time, dose: 265.0 mg/kg/injection, schedule: Q01DX001 (ip), vehicle: saline with Tween-80 97 % of control | endpoint: mean survival time, dose: 265.0 mg/kg/injection, schedule: Q01DX009 (ip), vehicle: saline with Tween-80 101 % of control | endpoint: mean survival time, dose: 400.0 mg/kg/injection, schedule: Q01DX001 (ip), vehicle: saline with Tween-80 92 % of control | [3] 97 % of control | endpoint: mean survival time, dose: 600.0 mg/kg/injection, schedule: Q01DX001 (ip), vehicle: saline with Tween-80 91 % of control

Cn1cc(C(O)CN2CCCCC2)c2ccccc21 (stereo not given)
inactive: [4] 93 % of control

CC[C@@]1(OC(=O)CN2CCCC2)C(=O)OCc2c1cc1n(c2=O)Cc2cc3ccccc3nc2-1
active: endpoint: median survival time, dose: 50.0 mg/kg/injection, schedule: Q04DX002 (ip), vehicle: water 158 % of control and 166 % of control
inactive: endpoint: median survival time, dose: 6.25 mg/kg/injection, schedule: Q04DX002 (ip), vehicle: water 108 % of control | endpoint: median survival time, dose: 12.5 mg/kg/injection, schedule: Q04DX002 (ip), vehicle: water 113 % of control

CCOC(=O)C1(C(=O)OCC)CCC(O)N1C(=O)c1cc2c(cc1[N+](=O)[O-])OCO2 (stereo not given)
inactive: endpoint: mean survival time, dose: 50.0 mg/kg/injection, schedule: Q01DX009 (ip), vehicle: Klucel (hydroxypropylcellulose) (HPC) 97 % of control | endpoint: mean survival time, dose: 100.0 mg/kg/injection, schedule: Q01DX009 (ip), vehicle: Klucel (hydroxypropylcellulose) (HPC) 101 % of control | endpoint: mean survival time, dose: 200.0 mg/kg/injection, schedule: Q01DX009 (ip), vehicle: Klucel (hydroxypropylcellulose) (HPC) 101 % of control

CCCCCOC(=O)CCCc1ccc(N(CCCl)CCCl)cc1
inactive: endpoint: mean survival time, dose: 12.5 mg/kg/injection, schedule: Q01DX009 (ip), vehicle: saline 118 % of control | endpoint: mean survival time, dose: 100.0 mg/kg/injection, schedule: Q01DX009 (ip), vehicle: saline 88 % of control

CCCCCCCCCCCCCC[N+]1(CC)CCCCC1
inactive: endpoint: mean survival time, dose: 0.12 mg/kg/injection, schedule: Q01DX009 (ip), vehicle: saline 100 % of control | endpoint: mean survival time, dose: 0.39 mg/kg/injection, schedule: Q01DX009 (ip), vehicle: saline 103 % of control | endpoint: mean survival time, dose: 0.78 mg/kg/injection, schedule: Q01DX009 (ip), vehicle: saline 106 % of control | endpoint: mean survival time, dose: 1.56 mg/kg/injection, schedule: Q01DX009 (ip), vehicle: saline 97 % of control

CCCCOC(=O)C=O
inactive: [5] 101 % of control | [6] 105 % of control | [7] 99 % of control

NC(C(=O)O)C(O)C(=O)O (stereo not given)
inactive: endpoint: mean survival time, dose: 37.5 mg/kg/injection, schedule: Q01DX009 (ip), vehicle: saline 101 % of control | endpoint: mean survival time, dose: 75.0 mg/kg/injection, schedule: Q01DX009 (ip), vehicle: saline 97 % of control | endpoint: mean survival time, dose: 150.0 mg/kg/injection, schedule: Q01DX009 (ip), vehicle: saline 98 % of control

O=C1N=C(Oc2ccccc2)SC1=O
inactive: [5] 95 % of control and 104 % of control | [6] 116 % of control and 101 % of control | [7] 103 % of control and 106 % of control | [1] 97 % of control and 101 % of control | [2] 90 % of control

[O-][n+]1ccc(-c2ccccc2)nc1
inactive: endpoint: mean survival time, dose: 50.0 mg/kg/injection, schedule: Q04DX002 (ip), vehicle: saline with Tween-80 106 % of control | endpoint: mean survival time, dose: 100.0 mg/kg/injection, schedule: Q04DX002 (ip), vehicle: saline with Tween-80 103 % of control | endpoint: mean survival time, dose: 200.0 mg/kg/injection, schedule: Q04DX002 (ip), vehicle: saline with Tween-80 117 % of control

CO[Si](c1ccccc1)(c1ccccc1)c1ccc(Br)cc1
inactive: [4] 96 % of control | [8] 98 % of control | [9] 102 % of control

CC[P+]1(c2ccccc2)CCCc2ccc3ccccc3c21 (stereo not given)
inactive: endpoint: mean survival time, dose: 12.5 mg/kg/injection, schedule: Q04DX003 (ip), vehicle: saline 117 % of control | endpoint: mean survival time, dose: 25.0 mg/kg/injection, schedule: Q04DX003 (ip), vehicle: saline 110 % of control

Cn1nc2ccccc2c1C#N
inactive: endpoint: mean survival time, dose: 50.0 mg/kg/injection, schedule: Q01DX001 (ip), vehicle: saline 102 % of control | endpoint: mean survival time, dose: 100.0 mg/kg/injection, schedule: Q01DX001 (ip), vehicle: saline 103 % of control | endpoint: mean survival time, dose: 200.0 mg/kg/injection, schedule: Q01DX001 (ip), vehicle: saline 96 % of control

COc1cccc2c1CCC1C2CC=C2CC3(CCC21C)OCCO3 (stereo not given)
inactive: endpoint: mean survival time, dose: 100.0 mg/kg/injection, schedule: Q04DX003 (sc), vehicle: steriod suspending solution 97 % of control | endpoint: mean survival time, dose: 200.0 mg/kg/injection, schedule: Q04DX003 (sc), vehicle: steriod suspending solution 92 % of control | endpoint: mean survival time, dose: 400.0 mg/kg/injection, schedule: Q04DX003 (sc), vehicle: steriod suspending solution 94 % of control

CCCCCCCCN(C)S(=O)(=O)CCCC
inactive: endpoint: mean survival time, dose: 6.25 mg/kg/injection, schedule: Q01DX009 (ip), vehicle: water 103 % of control | endpoint: mean survival time, dose: 12.5 mg/kg/injection, schedule: Q01DX009 (ip), vehicle: water 95 % of control | endpoint: mean survival time, dose: 25.0 mg/kg/injection, schedule: Q01DX009 (ip), vehicle: water 106 % of control | endpoint: mean survival time, dose: 50.0 mg/kg/injection, schedule: Q01DX009 (ip), vehicle: water 111 % of control | endpoint: mean survival time, dose: 100.0 mg/kg/injection, schedule: Q01DX009 (ip), vehicle: water 103 % of control

S=P(S)(c1ccccc1)c1ccccc1
inactive: endpoint: mean survival time, dose: 80.5 mg/kg/injection, schedule: Q01DX009 (ip), vehicle: saline with Tween-80 104 % of control | endpoint: mean survival time, dose: 161.0 mg/kg/injection, schedule: Q01DX009 (ip), vehicle: saline with Tween-80 98 % of control | endpoint: mean survival time, dose: 322.0 mg/kg/injection, schedule: Q01DX009 (ip), vehicle: saline with Tween-80 100 % of control

O=C1c2ccccc2C(=O)N1CC(O)COc1ccccc1 (stereo not given)
inactive: [4] 94 % of control | [8] 101 % of control | [9] 103 % of control

CCN(CC)C(=O)Nc1cc2c3c(c1)CCCN3CCC2
inactive: [4] 98 % of control | [8] 96 % of control | [9] 87 % of control

O=C(O)CC(=O)O.[NH-]C1CCCCC1C1CCCCC1[NH-].[Pt+2] (stereo not given)
inactive: endpoint: mean survival time, dose: 3.12 mg/kg/injection, schedule: Q04DX003 (ip), vehicle: distilled water + Tween-80 106 % of control | endpoint: mean survival time, dose: 6.25 mg/kg/injection, schedule: Q04DX003 (ip), vehicle: distilled water + Tween-80 112 % of control | endpoint: mean survival time, dose: 12.5 mg/kg/injection, schedule: Q04DX003 (ip), vehicle: distilled water + Tween-80 119 % of control
active: endpoint: mean survival time, dose: 50.0 mg/kg/injection, schedule: Q04DX003 (ip), vehicle: distilled water + Tween-80 165 % of control | endpoint: mean survival time, dose: 100.0 mg/kg/injection, schedule: Q04DX003 (ip), vehicle: distilled water + Tween-80 201 % of control | endpoint: mean survival time, dose: 200.0 mg/kg/injection, schedule: Q04DX003 (ip), vehicle: distilled water + Tween-80 194 % of control

O=C(Nc1cccc(Cl)c1)NC1CCC(CC2CCCCC2)CC1 (stereo not given)
inactive: [4] 95 % of control | [8] 95 % of control | [9] 100 % of control

O=[N+]([O-])c1cccc(SNc2cccc(Cl)c2)c1
inactive: [6] 102 % of control | [7] 90 % of control | [1] 94 % of control

Source: PubChem BioAssay AID256 (DTP/NCI, 2004)
